Data reported in US6284768A, “Src family SH2 domain inhibitors” (Boehringer Ingelheim Pharmaceuticals, Inc., priority 1999, dated 2001).
pKd: −log10 of the molar value.

Each compound was assayed against T1, p56lck GST-SH2 (lck SH2 domain) (Homo sapiens, UniProt P06239) (assay: Receptor-ligand equilibrium binding constants by surface plasmon resonance (biosensor), lck SH2 domain). Conditions: Table 1, compounds of formula (II).
T1 construct: GST (N)
Protocol: The general methods for the determination of Receptor-Ligand Kinetic and Equilibrium Binding Constants using Surface Plasmon Resonance as applied to the lck SH2 Domain have been described in: M. M. Morelock, R. H. Ingraham, R. Betageri.
General Biosensor Methods.
The mobile phase buffer, 10 mM HEPES, pH 7.4, 150 mM NaCl, and 0.05% P-20, was maintained at a flow rate of 5 μL/min in all experiments. All buffers and protein solutions were filtered through a 0.2 um filter and degassed immediately before use.
Strepavidin was diluted to 0.25 mg/ml in 20 mM NaOAc buffer, pH 4.5 and immobilized by free amine coupling to approximately 3000 RU for all 4 flow cells from a single sensor chip .
Surface Kd Determinations.
The surface was regenerated by 4μL of 20 mM HCl followed by 4 μL of 150 mM Tris base. The values used in the analysis were the equilibrium plateau values from which the sample refractive index has been subtracted. For the data analyzed for linear function the equilibrium plateau values without the sample refractive index subtracted were used. Free solution Kd determinations. In a 96 well microtiter plate 20 nM SH2 domain suspended in running buffer containing 0.2 mg/ml BSA and 1 mM DT'T was distributed in 100 μL per well. The highest concentration of compound tested was added to the last well and titrated with 2 fold dilutions for a final of 10 concentrations to be run. 25 μL of the mixture was injected over a strepavidin-biotin-ε-aminohexanoic acid-EGQpYEEIPIA surface and regenerated with 4 μL of 20 mM HCl. […], of 150 mM Tris base was injected after every 11 samples. Typically 8 assays were run in an overnight programmed run.

T1 sequence (P06239 127-224 limits assumed): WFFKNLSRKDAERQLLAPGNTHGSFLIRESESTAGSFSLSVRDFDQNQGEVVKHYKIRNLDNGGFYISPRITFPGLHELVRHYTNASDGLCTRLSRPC

Row | SMILES | pKd
1 | COc1ccc(Cn2cc(Br)c(C)c(NC(=O)[C@H](Cc3ccc(C(C)(C)C(=O)O)cc3)NC(=O)C(C)(F)c3ccc(C(F)(F)F)cc3)c2=O)cc1 (stereo partly shown) [Compound 234] | 5.80
2 | COc1ccc(Cn2ccc(C)c(NC(=O)[C@H](Cc3ccc(NC(=O)C(=O)O)cc3)NC(=O)Cc3c[nH]c4ccc(O)cc34)c2=O)cc1 [Compound 27] | 5.60
3 | COc1ccc(Cn2ccc(C)c(NC(=O)[C@H](Cc3ccc(N(O)C(=O)C(=O)O)cc3)NC(C)=O)c2=O)cc1 [Compound 95] | 5.27
4 | Cc1ccn(Cc2ccoc2)c(=O)c1NC(=O)C(Cc1ccc(C(C)(C)C(=O)O)cc1)NC(=O)Cc1ccc2ccccc2c1 (stereo not shown) [Compound 202] | 5.60
5 | COc1ccc(Cn2ccc(C)c(NC(=O)[C@H](Cc3ccc(NC(=O)C(=O)O)cc3)NC(=O)Cc3ccc(NCC(C)(C)C)cc3)c2=O)cc1 [Compound 48] | 6.30
6 | COC1CCC(Cn2ccc(C)c(NC(=O)C(Cc3ccc(C(C)(C)C(=O)O)cc3)NC(=O)C(C)(C)c3ccc4ccccc4c3)c2=O)CC1 (stereo not shown) [Compound 235] | 5.21
7 | Cc1ccn(Cc2ccc(O)cc2)c(=O)c1NC(=O)[C@H](Cc1ccc(C(C)(C)C(=O)O)cc1)NC(=O)C(C)(C)c1cccc2ccccc12 [Compound 134] | 5.24
8 | COc1ccc(Cn2ccc(C)c(NC(=O)[C@H](Cc3ccc(NC(=O)C(=O)O)cc3)NC(=O)Cc3ccc4ccccc4c3)c2=O)cc1 [Compound 32] | 6.46
9 | COC1CCC(Cn2ccc(C)c(NC(=O)C(Cc3ccc(C(C)(C)C(=O)O)cc3)NC(=O)Cc3ccc4ccccc4c3)c2=O)CC1 (stereo not shown) [Compound 147] | 5.72
10 | COc1ccc(Cn2ccc(C)c(NC(=O)[C@H](Cc3ccc(CC(=O)O)cc3)NC(=O)COc3nccc4ccccc34)c2=O)cc1 [Compound 85] | 5.59
11 | CCCCCn1ccc(C)c(NC(=O)C(Cc2ccc(C(C)(C)C(=O)O)cc2)NC(=O)C(C)(C)c2ccc3ccccc3c2)c1=O (stereo not shown) [Compound 193] | 5.39
12 | COc1ccc(Cn2ccc(C)c(NC(=O)[C@H](Cc3ccc(CC(=O)O)cc3)NC(=O)Cc3ccc(N(C)C)cc3)c2=O)cc1 [Compound 93] | 4.92
13 | COc1ccc(Cn2ccc(C)c(NC(=O)[C@H](Cc3ccc(NC(=O)C(=O)O)cc3)NC(=O)Cc3c(C)[nH]c4ccccc34)c2=O)cc1 [Compound 28] | 5.96
14 | CCCCCCn1ccc(C)c(NC(=O)C(Cc2ccc(C(C)(C)C(=O)O)cc2)NC(=O)CCc2ccccc2)c1=O (stereo not shown) [Compound 204] | 5.00
15 | COc1c(F)c(F)c(Cn2ccc(C)c(NC(=O)C(Cc3ccc(C(C)(C)C(=O)O)cc3)NC(=O)Cc3ccc4ccccc4c3)c2=O)c(F)c1F (stereo not shown) [Compound 153] | 5.68
16 | Cc1ccn(Cc2ccccc2)c(=O)c1NC(=O)C(Cc1ccc(C(C)(C)C(=O)O)cc1)NC(=O)Cc1ccc2ccccc2c1 (stereo not shown) [Compound 198] | 5.60
17 | COc1ccc(Cn2ccc(C)c(NC(=O)[C@H](Cc3ccc(CC(=O)O)cc3)NC(=O)C3(c4ccccc4)CCCC3)c2=O)cc1 [Compound 78] | 4.89
18 | COc1ccc(Cn2ccc(C)c(NC(=O)[C@H](Cc3ccc(NC(=O)C(=O)O)cc3)NC(=O)Cc3ccccc3Br)c2=O)cc1 [Compound 38] | 5.49
19 | COc1ccc(Cn2ccc(C)c(NC(=O)[C@H](Cc3ccc(CC(=O)O)cc3)NC(=O)OCc3ccccc3)c2=O)cc1 [Compound 57] | 4.82
20 | Cc1ccn(Cc2ccc(Cl)cc2)c(=O)c1NC(=O)[C@H](Cc1ccc(CC(=O)O)cc1)NC(=O)Cc1cccc2ccccc12 [Compound 55] | 4.82
21 | COc1ccc(Cn2ccc(C)c(NC(=O)C(Cc3ccc(C(C)(C)C(=O)O)cc3)NC(=O)Cc3ccc4ccccc4c3)c2=O)cc1O (stereo not shown) [Compound 160] | 5.24
22 | COc1ccc(Cn2ccc(C)c(NC(=O)C(Cc3ccc(C(C)(C)C(=O)O)cc3)NC(=O)C(F)(F)F)c2=O)cc1 (stereo not shown) [Compound 176] | 5.74
23 | COc1ccc(Cn2ccc(C)c(NC(=O)[C@H](Cc3ccc(NC(=O)C(=O)O)cc3)NC(=O)Cc3cccc(N(C)C)c3)c2=O)cc1 [Compound 49] | 5.68
24 | COc1ccc(Cn2ccc(C)c(NC(=O)[C@H](Cc3ccc(NC(=O)C(=O)O)cc3)NC(=O)N(C)c3cccc4ccccc34)c2=O)cc1 [Compound 25] | 5.68
25 | COc1ccc(Cn2ccc(C)c(NC(=O)[C@H](Cc3ccc(C(C)(C)C(=O)O)cc3)NC(=O)Cc3ccccc3C)c2=O)cc1 [Compound 113] | 6.06

Row | SMILES | pKd
26 | COc1ccc(Cn2ccc(C)c(NC(=O)[C@H](Cc3ccc(CC(=O)O)cc3)NC(=O)C(C)(C)C)c2=O)cc1 [Compound 63] | 4.92
27 | COc1ccc(Cn2ccc(C)c(NC(=O)C(Cc3ccc(C(C)(C)C(=O)O)cc3)N(C)C(=O)C(C)(C)c3ccc4ccccc4c3)c2=O)cc1 (stereo not shown) [Compound 161] | 3.34
28 | COc1ccc(Cn2ccc(C)c(NC(=O)[C@H](Cc3ccc(C(C)C(=O)O)cc3)NC(=O)Cc3cccc4ccccc34)c2=O)cc1 (stereo partly shown) [Compound 3] | 5.29
29 | Cc1ccn(C/C=C/c2ccccc2)c(=O)c1NC(=O)C(Cc1ccc(C(C)(C)C(=O)O)cc1)NC(=O)C(C)(C)c1ccc2ccccc2c1 (racemic) [Compound 116] | 5.49
30 | COc1ccc(Cn2ccc(C)c(NC(=O)[C@H](Cc3ccc(CC(=O)O)cc3)NC(=O)Cc3ccc(CC(C)(C)C)cc3)c2=O)cc1 [Compound 163] | 5.96
31 | COc1ccc(Cn2ccc(C)c(NC(=O)[C@H](Cc3ccc(C(F)(F)P(=O)(O)O)cc3)NC(C)=O)c2=O)cc1 [Compound 65] | 5.89
32 | COc1ccc(Cn2ccc(CCO)c(NC(=O)C(Cc3ccc(C(C)(C)C(=O)O)cc3)NC(=O)C(C)(C)c3ccc4ccccc4c3)c2=O)cc1 (stereo not shown) [Compound 223] | 5.62
33 | CCCCCCn1cc(C(=O)OC)c(C)c(NC(=O)C(Cc2ccc(C(C)(C)C(=O)O)cc2)NC(=O)C(C)(C)c2ccc3ccccc3c2)c1=O (stereo not shown) [Compound 121] | 5.57
34 | COc1ccc(Cn2ccc(C)c(NC(=O)[C@H](Cc3ccc(NC(=O)C(=O)O)cc3)NC(=O)Cc3ccccc3N(C)C)c2=O)cc1 [Compound 35] | 5.40
35 | COc1ccc(Cn2cc(I)c(C)c(NC(=O)C(Cc3ccc(C(C)(C)C(=O)O)cc3)NC(=O)Cc3ccc4ccccc4c3)c2=O)cc1 (racemic) [Compound 229, 3-[2'-(R,S)-(2""-Naphthylacetyl)amino-3'4"-(1'"-carboxy-1'"-methyl)ethyl]benzene]propanoylamino-5-iodo-1-(4-methoxybenzyl)-4-methyl-2-pyridone] | 6.85
36 | COc1ccc(Cn2ccc(C)c(NC(=O)[C@H](Cc3ccc(CC(=O)O)cc3)NC(=O)Cc3ccc(C(C)(C)C)cc3)c2=O)cc1 [Compound 162] | 6.00
37 | CCCCCCn1cc(Br)c(C)c(NC(=O)C(Cc2ccc(C(C)(C)C(=O)O)cc2)NC(=O)Cc2ccc3ccccc3c2)c1=O (stereo not shown) [Compound 238] | 6.14
38 | Cc1ccn(Cc2ccccn2)c(=O)c1NC(=O)[C@H](Cc1ccc(CC(=O)O)cc1)NC(=O)Cc1cccc2ccccc12 [Compound 23] | 4.25
39 | Cc1ccn(CC2CCCCC2)c(=O)c1NC(=O)[C@H](Cc1ccc(CC(=O)O)cc1)NC(=O)Cc1cccc2ccccc12 [Compound 68] | 4.92
40 | COc1ccc(Cn2ccc(C)c(NC(=O)[C@H](Cc3ccc(NC(=O)C(=O)O)cc3)NC(=O)Cc3ccccc3[N+](=O)[O-])c2=O)cc1 [Compound 34] | 5.62
41 | COC1CCC(Cn2ccc(C)c(NC(=O)C(Cc3ccc(C(C)(C)C(=O)O)cc3)NC(=O)Cc3ccc4ccccc4c3)c2=O)CC1 (stereo not shown) [Compound 239] | 5.49
42 | COc1ccc(Cn2ccc(C)c(NC(=O)[C@H](Cc3ccc(NC(=O)C(=O)O)cc3)NC(=O)c3csc(NS(=O)(=O)c4ccc(Cl)cc4)n3)c2=O)cc1 [Compound 14] | 5.38
43 | COc1ccc(Cn2ccc(C)c(NC(=O)C(Cc3ccc(C(C)(C)C(=O)O)cc3)N(C)C(=O)Cc3ccc4ccccc4c3)c2=O)cc1 (racemic) [Compound 152, 3-[2'-(R,S)-(N-Methyl-N-(2""-naphthylacetyl)amino-3'-[4"-(1'"-carboxy-1'"-methyl)ethyl]benzene]propanoylamino-1-(4-methoxybenzyl)-4-methyl-2-pyridone] | 5.35
44 | COC1CCC(Cn2ccc(C)c(NC(=O)C(Cc3ccc(C(C)(C)C(=O)O)cc3)NC(=O)Cc3ccc(C(F)(F)F)cc3)c2=O)CC1 (stereo not shown) [Compound 148] | 5.44
45 | COc1ccc(Cn2ccc(C)c(NC(=O)[C@H](Cc3ccc(CC(=O)O)cc3)NC(=O)C3(c4ccccc4)CCCCC3)c2=O)cc1 [Compound 79] | 4.96
46 | COc1ccc(Cn2ccc(C)c(NC(=O)[C@H](Cc3ccc(CC(=O)O)cc3)NC(=O)[C@@H](C)c3ccc4cc(OC)ccc4c3)c2=O)cc1 [Compound 62] | 5.06
47 | COc1ccc(Cn2ccc(C)c(NC(=O)[C@H](Cc3ccc(CC(=O)O)cc3)NC(=O)COc3cccc4cnccc34)c2=O)cc1 [Compound 84] | 3.40
48 | COc1ccc(Cn2ccc(C)c(NC(=O)[C@H](Cc3ccc(CC(=O)O)cc3)NC(=O)Cc3cc4ccccc4[nH]3)c2=O)cc1 [Compound 41] | 5.33
49 | COc1ccc(Cn2ccc(C)c(NC(=O)[C@H](Cc3ccc(CC(=O)O)cc3)NC(=O)Cc3cccc(O)c3)c2=O)cc1 [Compound 165] | 5.55
